Results on 16 compounds are retold here after patent US7169778B2, “Pteridinones as kinase inhibitors” (Warner-Lambert Company, priority 1999, dated 2007).

One data set concerns the target C-src kinase (Homo sapiens, UniProt P12931). The data set can be described thus: C-src kinase assay. The class given is biochemical. How it is done:
C-src kinase was purified from baculovirus infected insect cell lysates using an antipeptide monoclonal antibody directed against the N-terminal amino acids (amino acids 2–17) of c-src. The antibody, covalently linked to 0.65 μm latex beads, was added to a suspension of insect cell lysis buffer comprised of 150 mM NaCl, 50 mM Tris pH 7.5, 1 mM DTT, 1% NP-40, 2 mM EGTA, 1 mM sodium vanadate, 1 mM PMSF, 1 μg/mL each of leupeptin, pepstatin, and aprotinin. Insect cell lysate containing c-src protein was incubated with these beads for 3 to 4 hours at 4° C. with rotation. At the end of the lysate incubation, the beads were rinsed three times in lysis buffer, resuspended in lysis buffer containing 10% glycerol, and frozen. These latex beads were thawed, rinsed three times in assay buffer (40 mM Tris, pH 7.5, 5 mM mgCl2) and suspended in the same buffer. In a Millipore 96-well plate with a 0.65 μm polyvinylidine membrane bottom were added the reaction components: 10 μL C-src beads, 10 μL of 2.5 mg/mL poly GluTyr substrate, 5 μM ATP containing 0.2 μCi labeled ^32P-ATP, 5 μL DMSO containing inhibitors or as a solvent control, and buffer to make the final volume 125 μL. The reaction was started at room temperature by addition of the ATP and quenched 10 minutes later by the addition of 125 μL of 30% TCA, 0.1 M sodium pyrophosphate for 5 minutes on ice. The plate was then filtered and the wells washed with two […] aliquots of 15% TCA, 0.1 M pyrophosphate. The filters were then punched, counted in a liquid scintillation counter, and the data examined for inhibitory activity in comparison to a known inhibitor such as erbstatin. The method is also described in J. Med. Chem., 1994;37:598–609.

In data set [1] the target is T1, mouse PDGF-β receptor tyrosine kinase (Mus musculus, UniProt P05622).
T1 construct: amplify a fragment of DNA that codes for the intracellular tyrosine kinase domain; made in house; host or cells: SF9 insect cells (baculovirus)
Briefly: PDGF receptor tyrosine kinase assay. The class given is biochemical. An excerpt:
(§1) Full-length cDNAs for the mouse PDGF-β and human FGF-1 (flg) receptor tyrosine kinases were obtained from J. Escobedo and prepared as described in J. Biol. Chem., 1991;262:1482–1487. PCR primers were designed to amplify a fragment of DNA that codes for the intracellular tyrosine kinase domain. The fragment was inserted into a baculovirus vector, cotransfected with AcMNPV DNA, and the recombinant virus isolated. SF9 insect cells were infected with the virus to overexpress the protein, and the cell lysate was used for the assay. Assays were performed in 96-well plates (100 μL/incubation/well), and conditions were optimized to measure the incorporation of ^32P from γ^32P-ATP into a glutamate-tyrosine co-polymer substrate. Briefly, to each well was added 82.5 μL of incubation buffer containing 25 mM Hepes (pH 7.0), 150 mM NaCl, 0.1% Triton X-100, 0.2 mM PMSF, 0.2 mM Na3VO4, 10 mM MnCl2, and 750 μg/mL of Poly (4:1) glutamate-tyrosine followed by 2.5 μL of inhibitor and 5 μL of enzyme lysate (7.5 μg/μL FGF-TK or 6.0 μg/μL PDGF-TK) to initiate the reaction. Following a 10 minute incubation at 25° C., […] of γ^32P-ATP (0.4 μCi plus 50 μM ATP) was added to each well, and samples were incubated for an additional 10 minutes at 25° C. The reaction was terminated by the addition of 100 μL of 30% TCA containing 20 mM sodium pyrophosphate and precipitation of material onto glass fiber mats (Wallac). Filters were washed three times with 15% TCA containing 100 mM sodium pyrophosphate, and the radioactivity retained on the filters counted in a Wallac 1250 Betaplate reader. Nonspecific activity was defined as radioactivity retained on the filters following incubation of samples with buffer alone (no enzyme). Specific enzymatic activity (enzyme plus buffer) was defined as total activity minus nonspecific activity. The concentration of a compound that inhibited specific activity by 50% (IC50) was determined based on the inhibition curve.

The target in data set [2] is N-terminal truncated Wee 1 (Homo sapiens, UniProt P30291). Briefly: Wee 1 OY kinase assay. It counts as biochemical. Particulars: read-out: WEE1OY IC50. How it is done:
These kinase assays are carried out on 96-well filter plates (Millpore, Cat. MADPN0B50) in 50 μL kinase assay buffer (50 mM Tris, pH 8.0, 10 mM NaCl, 10 mM MgCl2, 10 μM ATP with 0.25 μCi [r-32P]ATP, 1 mM DTT) with 0.1 μg purified N-terminal truncated Wee 1 and 6 μg poly(Orn, Tyr)4:1 (Sigma, P4534). The assay is started by adding ATP and incubating at room temperature for 20 minutes with shaking. The reactions are terminated by adding 50 μL ice-cold 20% TCA (trichloracetic acid) with 0.1 M sodium pyrophosphate and shaking the resultant mixture for 1 minute. The plate is then incubated at 4° C. for 1 hour to allow protein to precipitate. These plates are then washed 5 times with 200 μL ice-cold 10% TCA and with 0.1 M sodium pyrophosphate per wash. Twenty-five microliters scintillation liquid is then added to each well, and the plate is counted in Wallac's MicroBeta counter 1450.

Data set [3] concerns the target T2, human FGF-1 (flg) receptor tyrosine kinase (Homo sapiens, UniProt P11362).
T2 construct: amplify a fragment of DNA that codes for the intracellular tyrosine kinase domain; made in house; host or cells: SF9 insect cells (baculovirus)
The data set can be described thus: FGF receptor tyrosine kinase assay. It counts as biochemical. Particulars: for inhibition at 5 µM: @ 5 (unit μm), read-out: FGF % @ concentration.
Source text: as §1

Chain of N-terminal truncated Wee 1 (P30291 299-569 limits assumed): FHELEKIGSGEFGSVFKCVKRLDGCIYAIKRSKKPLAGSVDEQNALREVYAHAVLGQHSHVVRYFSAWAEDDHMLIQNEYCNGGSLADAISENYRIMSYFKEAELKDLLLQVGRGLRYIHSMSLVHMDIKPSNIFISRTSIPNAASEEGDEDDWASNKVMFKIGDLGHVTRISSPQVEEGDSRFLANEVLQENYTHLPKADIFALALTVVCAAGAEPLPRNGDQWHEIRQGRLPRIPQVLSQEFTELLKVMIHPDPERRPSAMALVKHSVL
Chain of C-src kinase (P12931 whole entry, the tested form may be a part): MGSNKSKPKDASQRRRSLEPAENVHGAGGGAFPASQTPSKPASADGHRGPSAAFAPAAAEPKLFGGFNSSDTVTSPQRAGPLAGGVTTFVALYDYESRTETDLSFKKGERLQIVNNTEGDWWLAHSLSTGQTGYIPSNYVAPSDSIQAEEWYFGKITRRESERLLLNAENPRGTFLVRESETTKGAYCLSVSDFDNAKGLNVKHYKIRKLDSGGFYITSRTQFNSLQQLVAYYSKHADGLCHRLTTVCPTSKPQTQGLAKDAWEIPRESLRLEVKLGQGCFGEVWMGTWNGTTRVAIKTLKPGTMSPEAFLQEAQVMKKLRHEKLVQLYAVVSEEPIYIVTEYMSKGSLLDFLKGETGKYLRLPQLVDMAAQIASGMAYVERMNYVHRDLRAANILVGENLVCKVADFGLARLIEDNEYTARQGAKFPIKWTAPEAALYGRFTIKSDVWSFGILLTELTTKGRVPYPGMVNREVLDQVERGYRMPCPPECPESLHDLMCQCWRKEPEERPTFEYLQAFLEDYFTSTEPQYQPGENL
T1 sequence (P05622 599-961 limits assumed): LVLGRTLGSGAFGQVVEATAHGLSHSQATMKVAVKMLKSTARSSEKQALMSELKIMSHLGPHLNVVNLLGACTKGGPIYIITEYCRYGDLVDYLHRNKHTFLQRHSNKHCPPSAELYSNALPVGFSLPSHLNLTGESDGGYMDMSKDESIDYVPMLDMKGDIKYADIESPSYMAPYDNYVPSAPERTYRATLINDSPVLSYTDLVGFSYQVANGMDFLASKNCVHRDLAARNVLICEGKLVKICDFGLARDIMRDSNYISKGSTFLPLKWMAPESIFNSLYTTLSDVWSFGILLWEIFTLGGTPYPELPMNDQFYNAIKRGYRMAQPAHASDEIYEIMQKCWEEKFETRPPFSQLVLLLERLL
T2 sequence (P11362 478-767 limits assumed): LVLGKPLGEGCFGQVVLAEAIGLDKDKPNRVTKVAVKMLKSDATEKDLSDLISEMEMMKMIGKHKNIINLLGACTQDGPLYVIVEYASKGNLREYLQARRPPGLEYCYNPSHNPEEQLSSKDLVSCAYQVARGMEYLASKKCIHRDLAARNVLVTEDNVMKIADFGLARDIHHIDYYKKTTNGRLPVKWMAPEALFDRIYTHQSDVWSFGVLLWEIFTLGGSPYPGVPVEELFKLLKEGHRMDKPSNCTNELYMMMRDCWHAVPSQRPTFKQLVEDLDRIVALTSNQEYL

In turn, `Cn1c(=O)c(-c2ccccc2)nc2cnc(Nc3ccc(N4CCOCC4)cc3)nc21` [Compound 1] yielded a melting point of 302 to 304.5 °C. This compound gave an IC50 against C-src kinase of over 50 µM. The compound further gave an IC50 in data set [1] of over 50 µM. In data set [2], the IC50 is over 50 µM. Moreover, in data set [3], the IC50 was over 50 µM.

`Cn1c(=O)c(-c2c(Cl)cccc2Cl)nc2cnc(Nc3ccc(N4CCOCC4)cc3)nc21` [Compound 2, 6-(2,6-Dichlorophenyl)-8-methyl-2-[[4-(morpholin-4-yl)phenyl]amino]-8H-pteridin-7-one]: the melting point is 292 to 293 °C. Besides, at C-src kinase, the IC50 is 0.057 µM. The compound further gave an IC50 in data set [1] of 7.7 µM. In addition, in data set [2], the IC50 came out at 0.144 µM. The same compound returned an IC50 in data set [3] of over 50 µM.

With `CCN(CC)CCOc1ccc(Nc2ncc3nc(-c4ccccc4)c(=O)n(C)c3n2)cc1` [Compound 3, 2-[[4-[2-(Diethylamino)ethoxy]phenyl]amino]-8-methyl-6-phenyl-8H-pteridin-7-one], the melting point was in the range of 162 to 165 °C. Further, on C-src kinase, the IC50 turned out to be 1.53 µM. The compound also showed an IC50 in data set [1] of 7.55 µM. Also, the IC50 in data set [2] is over 50 µM. Besides, the inhibition at 5 µM in data set [3] came to 54%.

Consider `CCN(CC)CCOc1ccc(Nc2ncc3nc(-c4c(Cl)cccc4Cl)c(=O)n(C)c3n2)cc1` [Compound 4, 6-(2,6Dichlorophenyl)-2-[[4-[2-(diethylamino)ethoxy]phenyl]amino]-8-methyl-8H-pteridin-7-one], for which the melting point lay in the range of 156 to 161 °C. The IC50 against C-src kinase came to 0.015 µM. In data set [1], this compound yielded an IC50 of 0.7 µM. Moreover, the IC50 in data set [2] came to 0.861 µM. The inhibition at 5 µM in data set [3] was 69%.

Take `CCN(CC)C(=O)c1ccc(Nc2ncc3nc(-c4ccccc4)c(=O)n(C)c3n2)cc1` [Compound 5, 2-[[4-(Diethylaminocarbonyl)phenyl]amino]-8-methyl-6-phenyl-8H-pteridin-7-one]: the melting point lay in the range of 250 to 252 °C. On C-src kinase, this compound yielded an IC50 of over 50 µM. Further, the 50% inhibitory concentration (IC50) in data set [1] was over 50 µM. Besides, the IC50 in data set [2] is over 50 µM. Besides, in data set [3], the inhibition at 5 µM was found to be 38%.

`Cn1c(=O)c(-c2c(Cl)cncc2Cl)nc2cnc(Nc3ccc(N4CCOCC4)cc3)nc21` [Compound 12, 6-(3,5-Dichloropyridin-4-yl)-8-methyl-2-[[4-(morpholin-4-yl)phenyl]amino]-8H-pteridin-7-one]: the melting point was 243 to 245 °C. The 50% inhibitory concentration (IC50) against C-src kinase stood at 0.38 µM. Further, it took 25.4 µM to reach half-maximal inhibition in data set [1] (IC50). For the same compound, in data set [2], the IC50 worked out at 1.01 µM.

Compound `CCN(CC)C(=O)c1ccc(Nc2ncc3nc(-c4c(Cl)cncc4Cl)c(=O)n(C)c3n2)cc1` [Compound 13, 6-(3,5-Dichloropyridin-4yl)-2-[[4-(diethylaminocarbonyl)phenyl]-amino]-8-methyl-8H-pteridin-7-one] gave a melting point of 230 to 231 °C. Besides, the IC50 at C-src kinase was determined as 0.5 µM. The IC50 in data set [2] turned out to be 4.49 µM. In addition, in data set [3], the inhibition at 5 µM is 17%.

As for `CCN(CC)CCOc1ccc(Nc2ncc3nc(-c4cc(OC)cc(OC)c4)c(=O)n(CC)c3n2)cc1` [Compound 14, 6-(3,5-Dimethoxyphenyl)-8-ethyl-2-[[4-[2-(diethylamino)ethoxyl]-phenyl]amino]-8H-pteridin-7-one], the melting point was 154 to 155 °C. The same compound came in with an IC50 in data set [3] of 30 µM.

`CCn1c(=O)c(-c2cc(OC)cc(OC)c2)nc2cnc(Nc3ccncc3)nc21` [Compound 15, 6-(3,5-Dimethoxyphenyl)-8-ethyl-2-[(pyridin-4-yl)amino]-8H-pteridin-7-one] showed a melting point of 245 to 246.5 °C.

Compound `COc1nc(OC)c(Cl)c(-c2nc3cnc(Nc4ccc(N5CCOCC5)cc4)nc3n(C)c2=O)c1Cl` [Compound 18, 6-(3,5-Dichloro-2,6-dimethoxypyridin-4-yl)-8-methyl-2-[[4-(morpholin-4-yl)phenyl]amino]-8H-pteridin-7-one] had a melting point of 275 to 276 °C. This compound also returned an IC50 at C-src kinase of 20 µM. Moreover, the concentration for half-maximal inhibition (IC50) in data set [2] was over 50 µM. The compound further had an IC50 in data set [3] of 0.23 µM.

Compound `Cn1c(=O)c(-c2c(Br)cncc2Br)nc2cnc(Nc3ccc(N4CCOCC4)cc3)nc21` [Compound 19, 6-(3,5-Dibromopyridin-4-yl)-8-methyl-2-[[4-(morpholin-4-yl)phenyl]amino]-8H-pteridin-7-one] displayed a melting point of 204 to 206 °C. Also, 1.45 µM corresponded to half-maximal inhibition at C-src kinase (IC50). In data set [2], the IC50 stood at 7.4 µM.

In the case of `CCN(CC)CCOc1ccc(Nc2ncc3nc(-c4c(Cl)cncc4Cl)c(=O)n(C)c3n2)cc1` [Compound 20, 6-(3,5-Dichloropyridin-4-yl)-8-methyl-2-[[4-[2-(diethylamino)ethoxy]-phenyl]amino]-8H-pteridin-7-one], the melting point lay within 179 to 180.5 °C. This compound also returned an IC50 against C-src kinase of 0.12 µM. Moreover, the IC50 in data set [2] turned out to be 7.07 µM.

As to `CCN(CC)CCOc1ccc(Nc2ncc3nc(-c4c(Cl)c(OC)nc(OC)c4Cl)c(=O)n(C)c3n2)cc1` [Compound 21, 6-(3,5-Dichloro-2,6-dimethoxypyridin-4-yl)-8-methyl-2-[[4-[2-(diethylamino)ethoxy]phenyl]amino]-8H-pteridin-7-one], the IC50 against C-src kinase was 6.8 µM; in data set [2], over 50 µM; in data set [3], 0.054 µM.

`CCN(CC)C(=O)c1ccc(Nc2ncc3nc(-c4c(Cl)c(OC)nc(OC)c4Cl)c(=O)n(C)c3n2)cc1` [Compound 22, 6-(3,5Dichloro-2,6-dimethoxypyridin-4-yl)-2-[[4-(diethylaminocarbonyl)phenyl]amino]-8-methyl-8H-pteridin-7-one] registered a melting point of 274 to 276 °C. Moreover, it took 47 µM to reach half-maximal inhibition against C-src kinase (IC50). For the same compound, the IC50 in data set [2] was over 50 µM. The compound also showed an IC50 in data set [3] of 0.16 µM.

Regarding `O=c1[nH]c2cnc(Nc3ccc(N4CCOCC4)cc3)nc2n(C2CCCC2)c1=O` [Compound 23, 8-Cyclopentyl-2-[[4-(morpholin-4-yl]phenyl]amino]-5H,8H-pteridine-6,7-dione], the melting point lay within 283 to 286 °C.

The compound `CN1CCN(c2ccc(Nc3ncc4[nH]c(=O)c(=O)n(C5CCCC5)c4n3)cc2)CC1` [Compound 24, 8-Cyclopentyl-2-[[4-(4-methylpiperazin-1-yl)phenyl]amino]-5H,8H-pteridine-6,7-dione] displayed a melting point of 266 to 270 °C. Besides, the concentration for half-maximal inhibition (IC50) at C-src kinase was found to be 4.35 µM.

One may read the IC50 as the concentration needed to halve the response being measured. Broadly, the melting point is the temperature of the solid-liquid transition.
